Results on 25 molecules are retold here after patent publication US10738056B2 (Aduro BioTech, Inc., priority 2017, dated 2020).

In experiment [1] the test system is cGAS/STING pathway in THP1 cells. The experiment is described as follows: THP1 cell-based cGAS/STING pathway activity assay (IRF-3-linked luciferase reporter). Conditions: Homo sapiens, THP-1. From the text: A cellular assay can be used to assess the compounds of the invention for their ability to inhibit the cGAS/STING pathway. Cells that express a luciferase-based reporter that is linked to IRF-3 activation are used to determine response as a function of compound concentration. Such an assay is described in Vincent et al., Nature Communications 2017, 8(1):750, doi: 10.1038/s41467-017-00833-9.
A cellular assay can be used to assess the compounds of the invention for their ability to inhibit the cGAS/STING pathway. Cells that express a luciferase-based reporter that is linked to IRF-3 activation are used to determine response as a function of compound concentration. Such an assay is described in Vincent et al., Nature Communications 2017, 8(1):750, doi: 10.1038/s41467-017-00833-9. Compounds of the invention were assessed using similar assay methods in a THP1 cell assay to generate IC50 values as provided in the following Table 16. In this table, activity level “A” indicates an IC50 value less than 20 μM, “B” indicates an IC50 value between 20 and 100 μM, and “C” indicates an IC50 value above the upper limit of the assay (100 μM), or where an IC50 value could not be generated from the data.
On the technique in general: A reporter such as luciferase makes a cellular process visible.

Experiment [2] has as its target Human cGAS amino acids 155-522 (Homo sapiens (Human), UniProt Q8N884). The experiment is described as follows: cGAS biochemical activity assay (ATP remaining, Kinase-Glo Max luminescence). Conditions: human cGAS 155-522, ATP remaining (Kinase-Glo Max); read-out: cGAS IC50. (In general: Kinase-Glo reads ATP consumption through a luciferase reaction.)

Chain of Human cGAS amino acids 155-522 (Q8N884 157-522): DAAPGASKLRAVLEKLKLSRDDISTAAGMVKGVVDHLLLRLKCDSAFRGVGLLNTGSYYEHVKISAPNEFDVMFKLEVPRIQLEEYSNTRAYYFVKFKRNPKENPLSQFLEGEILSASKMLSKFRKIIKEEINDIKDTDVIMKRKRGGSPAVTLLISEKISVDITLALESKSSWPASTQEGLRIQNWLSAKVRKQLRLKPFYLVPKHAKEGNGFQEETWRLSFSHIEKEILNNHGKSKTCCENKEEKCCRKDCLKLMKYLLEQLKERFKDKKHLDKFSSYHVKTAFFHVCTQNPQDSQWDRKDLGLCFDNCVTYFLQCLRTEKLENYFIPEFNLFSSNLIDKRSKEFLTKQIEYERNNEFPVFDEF

Broadly, the IC50 is the midpoint of a concentration-inhibition curve. As to `COc1cccc2oc(-c3c(N4CCOCC4)[nH]c4c(-c5ccccc5)c(C(F)(F)F)nn4c3=O)nc12` [Compound C1258, 6-(4-methoxybenzo[d]oxazol-2-yl)-5-morpholino-3-phenyl-2-(trifluoromethyl)pyrazolo[1,5-a]pyrimidin-7(4H)-one], the IC50 in experiment [1] and in experiment [2] was under 20 µM throughout.
For `Cc1[nH]c2c(-c3ccccc3)c(C#N)nn2c(=O)c1-c1nc2c(N)cccc2o1` [Compound C1223, 6-(4-aminobenzo[d]oxazol-2-yl)-5-methyl-7-oxo-3-phenyl-4,7-dihydropyrazolo[1,5-a]pyrimidine-2-carbonitrile], the half-maximal inhibitory concentration (IC50) in experiment [1] was 20 to 100 µM; in experiment [2], under 20 µM.
The matching figures for `Cc1[nH]c2c(-c3ccccc3)c(C#N)nn2c(=O)c1-c1nc2ccc(N)c(Cl)c2o1` [Compound C1271, 6-(6-amino-7-chlorobenzo[d]oxazol-2-yl)-5-methyl-7-oxo-3-phenyl-4,7-dihydropyrazolo[1,5-a]pyrimidine-2-carbonitrile]: over 100 µM and under 20 µM.
The matching figures for `Cc1[nH]c2c(-c3ccccc3)c(C(F)(F)F)nn2c(=O)c1-c1nc2ccccc2o1` [Compound C1011, 6-(benzo[d]oxazol-2-yl)-5-methyl-3-phenyl-2-(trifluoromethyl)pyrazolo[1,5-a]pyrimidin-7(4H)-one]: under 20 µM and over 250 µM.
In the case of `COc1cccc2nc(-c3c(C)[nH]c4c(-c5ccccc5)c(C(F)(F)F)nn4c3=O)cn12` [Compound C1057, 6-(5-methoxyimidazo[1,2-a]pyridin-2-yl)-5-methyl-3-phenyl-2-(trifluoromethyl)pyrazolo[1,5-a]pyrimidin-7(4H)-one], the IC50 was over 100 µM in experiment [1] and under 20 µM in experiment [2].
The matching figures for `Cc1[nH]c2c(-c3ccccc3)c(C(F)(F)F)nn2c(=O)c1-c1nnc(C(C)(O)C(F)(F)F)o1` (centres unmarked) [Compound D1008, 5-methyl-3-phenyl-6-(5-(1,1,1-trifluoro-2-hydroxypropan-2-yl)-1,3,4-oxadiazol-2-yl)-2-(trifluoromethyl)pyrazolo[1,5-a]pyrimidin-7(4H)-one]: over 100 µM and 20 to 250 µM.
The matching figures for `Cc1[nH]c2c(-c3ccccc3)c(C(F)(F)F)nn2c(=O)c1C(=O)Nc1ccccc1Cl` [Compound A1033, N-(2-chlorophenyl)-5-methyl-7-oxo-3-phenyl-2-(trifluoromethyl)-4,7-dihydropyrazolo[1,5-a]pyrimidine-6-carboxamide]: 20 to 100 µM and 20 to 250 µM.
The corresponding values for `Cc1[nH]c2c(-c3ccccc3)c(C(F)(F)F)nn2c(=O)c1-c1nc2c(F)cccc2o1` [Compound C1076, 6-(4-fluorobenzo[d]oxazol-2-yl)-5-methyl-3-phenyl-2-(trifluoromethyl)pyrazolo[1,5-a]pyrimidin-7(4H)-one] are under 20 µM and under 20 µM.
`COCc1[nH]c2c(-c3ccccc3)c(C#N)nn2c(=O)c1-c1nc2c(OC)nc(N)cc2o1` [Compound C1227, 6-(6-amino-4-methoxyoxazolo[4,5-c]pyridin-2-yl)-5-(methoxymethyl)-7-oxo-3-phenyl-4,7-dihydropyrazolo[1,5-a]pyrimidine-2-carbonitrile]: the figures for the IC50 in experiment [1] and in experiment [2] were over 100 µM and under 20 µM, respectively.
For `COc1cc(CO)cc2oc(-c3c(C)[nH]c4c(-c5ccccc5)c(C#N)nn4c3=O)nc12` [Compound C1203, 6-(6-(hydroxymethyl)-4-methoxybenzo[d]oxazol-2-yl)-5-methyl-7-oxo-3-phenyl-4,7-dihydropyrazolo[1,5-a]pyrimidine-2-carbonitrile], the IC50 in experiment [1] was over 100 µM; in experiment [2], under 20 µM.
The corresponding values for `Cc1[nH]c2c(-c3ccccc3)c(C(F)(F)F)nn2c(=O)c1-c1nnc([C@H]2CCCOC2)o1` [Compound D1025, (S)-5-methyl-3-phenyl-6-(5-(tetrahydro-2H-pyran-3-yl)-1,3,4-oxadiazol-2-yl)-2-(trifluoromethyl)pyrazolo[1,5-a]pyrimidin-7(4H)-one] are 20 to 100 µM and under 20 µM.
`COc1c(C)ccc2oc(-c3c(C)[nH]c4c(-c5ccccc5)c(C(F)(F)F)nn4c3=O)nc12` [Compound C1093, 6-(4-methoxy-5-methylbenzo[d]oxazol-2-yl)-5-methyl-3-phenyl-2-(trifluoromethyl)pyrazolo[1,5-a]pyrimidin-7(4H)-one]: the values for the IC50 in experiment [1] and in experiment [2] were 20 to 100 µM and under 20 µM, respectively.
The corresponding values for `COc1ccc(C(=O)O)c2oc(-c3c(C)[nH]c4c(-c5ccccc5)c(C(F)(F)F)nn4c3=O)nc12` [Compound C1130] are 20 to 100 µM and under 20 µM.
The corresponding values for `Cc1[nH]c2c(-c3ccccc3)c(C(F)(F)F)nn2c(=O)c1-c1nc2c(Br)cccc2o1` [Compound C1040, 6-(4-bromobenzo[d]oxazol-2-yl)-5-methyl-3-phenyl-2-(trifluoromethyl)pyrazolo[1,5-a]pyrimidin-7(4H)-one] are under 20 µM and under 20 µM.
The matching figures for `COc1cccc2oc(-c3c(COCCO)[nH]c4c(-c5ccccc5)c(C(F)(F)F)nn4c3=O)nc12` [Compound C1226, 5-((2-hydroxyethoxy)methyl)-6-(4-methoxybenzo[d]oxazol-2-yl)-3-phenyl-2-(trifluoromethyl)pyrazolo[1,5-a]pyrimidin-7(4H)-one]: 20 to 100 µM and under 20 µM.
With `Cc1[nH]c2c(-c3ccccc3)c(C(F)(F)F)nn2c(=O)c1-c1ncc(C2CCCOC2)o1` (centres unmarked) [Compound C1027, 5-methyl-3-phenyl-6-(5-(tetrahydro-2H-pyran-3-yl)oxazol-2-yl)-2-(trifluoromethyl)pyrazolo[1,5-a]pyrimidin-7(4H)-one], the IC50 was 20 to 100 µM in experiment [1] and under 20 µM in experiment [2].
Regarding `Cc1[nH]c2c(-c3ccccc3)c(C(F)(F)F)nn2c(=O)c1-c1nc(C(=O)O)co1` [Compound C1165, 2-(5-methyl-7-oxo-3-phenyl-2-(trifluoromethyl)-4,7-dihydropyrazolo[1,5-a]pyrimidin-6-yl)oxazole-4-carboxylic acid], the IC50 in experiment [1] is over 100 µM; in experiment [2], under 20 µM.
With `Cc1[nH]c2c(-c3ccccc3)c(C(F)(F)F)nn2c(=O)c1-c1nc2c(C#N)cccc2o1` [Compound C1075, 2-(5-methyl-7-oxo-3-phenyl-2-(trifluoromethyl)-4,7-dihydropyrazolo[1,5-a]pyrimidin-6-yl)benzo[d]oxazole-4-carbonitrile], the 50% inhibitory concentration (IC50) in experiment [1] was over 100 µM; in experiment [2] it was under 20 µM.
The matching figures for `COCCOc1cccc2oc(-c3c(C)[nH]c4c(-c5ccccc5)c(C(F)(F)F)nn4c3=O)nc12` [Compound C1041, 6-(4-(2-methoxyethoxy)benzo[d]oxazol-2-yl)-5-methyl-3-phenyl-2-(trifluoromethyl)pyrazolo[1,5-a]pyrimidin-7(4H)-one]: under 20 µM and under 20 µM.
In the case of `Cc1[nH]c2c(-c3ccccc3)c(C(F)(F)F)nn2c(=O)c1C1=NC(C(=O)O)[C@H](C)O1` (stereo partly drawn) [Compound C1216, (5S)-5-methyl-2-(5-methyl-7-oxo-3-phenyl-2-(trifluoromethyl)-4,7-dihydropyrazolo[1,5-a]pyrimidin-6-yl)-4,5-dihydrooxazole-4-carboxylic acid], the IC50 in experiment [1] is over 100 µM; in experiment [2], under 20 µM.
With `Cc1[nH]c2c(-c3ccccc3)c(C(F)(F)F)nn2c(=O)c1-c1nc2c(OCCN)cccc2o1` [Compound C1061, 6-(4-(2-aminoethoxy)benzo[d]oxazol-2-yl)-5-methyl-3-phenyl-2-(trifluoromethyl)pyrazolo[1,5-a]pyrimidin-7(4H)-one], the results for the IC50 in experiment [1] and in experiment [2] were 20 to 100 µM and 20 to 250 µM, respectively.
Take `COc1cccc2oc(-c3c(CN(C)C)[nH]c4c(-c5ccccc5)c(C(F)(F)F)nn4c3=O)nc12` [Compound C1109, 5-((dimethylamino)methyl)-6-(4-methoxybenzo[d]oxazol-2-yl)-3-phenyl-2-(trifluoromethyl)pyrazolo[1,5-a]pyrimidin-7(4H)-one]: the IC50 in experiment [1] is over 100 µM; in experiment [2], under 20 µM.
On to `CCOc1cccc2oc(-c3c(C)[nH]c4c(-c5ccccc5)c(C(F)(F)F)nn4c3=O)nc12` [Compound C1038, 6-(4-ethoxybenzo[d]oxazol-2-yl)-5-methyl-3-phenyl-2-(trifluoromethyl)pyrazolo[1,5-a]pyrimidin-7(4H)-one], for which the IC50 in experiment [1] and in experiment [2] was under 20 µM in each case.
For the molecule `Cc1nc(NC(=O)c2c(C)[nH]c3c(-c4ccccc4)c(C(F)(F)F)nn3c2=O)oc1C` [Compound A1056, N-(4,5-dimethyloxazol-2-yl)-5-methyl-7-oxo-3-phenyl-2-(trifluoromethyl)-4,7-dihydropyrazolo[1,5-a]pyrimidine-6-carboxamide], the IC50 in experiment [1] was 20 to 100 µM; in experiment [2] it was under 20 µM.
Take `Cc1[nH]c2c(-c3ccccc3)c(C(F)(F)F)nn2c(=O)c1-c1nc2c(S(C)(=O)=O)cccc2o1` [Compound C1054, 5-methyl-6-(4-(methylsulfonyl)benzo[d]oxazol-2-yl)-3-phenyl-2-(trifluoromethyl)pyrazolo[1,5-a]pyrimidin-7(4H)-one]: the IC50 was over 100 µM in experiment [1] and 20 to 250 µM in experiment [2].
